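Results reflect a 48-hour exposure of cells in 96-well plates to compound at five concentrations. GI50 = concentration required for 50% inhibition of growth. The concentration for full growth arrest is given as TGI.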
Assays:
Test in all cases: growth of human tumour cells (NCI), 48 h
786-0 renal = test system: 786-0 renal
A498 renal = test system: A498 renal
A549 NSCLC = test system: A549 NSCLC
ACHN renal = test system: ACHN renal
BT-549 breast = test system: BT-549 breast
CAKI-1 renal = test system: CAKI-1 renal
CCRF-CEM leukemia = test system: CCRF-CEM leukemia
COLO 205 colon = test system: COLO 205 colon
DU-145 prostate = test system: DU-145 prostate
EKVX NSCLC = test system: EKVX NSCLC
HCC-2998 colon = test system: HCC-2998 colon
HCT-116 colon = test system: HCT-116 colon
HCT-15 colon = test system: HCT-15 colon
HL-60(TB) leukemia = test system: HL-60(TB) leukemia
HOP-62 NSCLC = test system: HOP-62 NSCLC
HOP-92 NSCLC = test system: HOP-92 NSCLC
HS 578T breast = test system: HS 578T breast
HT29 colon = test system: HT29 colon
IGROV1 ovarian = test system: IGROV1 ovarian
K-562 leukemia = test system: K-562 leukemia
KM12 colon = test system: KM12 colon
LOX IMVI melanoma = test system: LOX IMVI melanoma
M14 melanoma = test system: M14 melanoma
MALME-3M melanoma = test system: MALME-3M melanoma
MCF7 breast = test system: MCF7 breast
MDA-MB-231 breast = test system: MDA-MB-231 breast
MDA-MB-435 = test system: MDA-MB-435
MDA-MB-468 breast = test system: MDA-MB-468 breast
MOLT-4 leukemia = test system: MOLT-4 leukemia
NCI-H226 lung = test system: NCI-H226 lung
NCI-H23 lung = test system: NCI-H23 lung
NCI-H460 lung = test system: NCI-H460 lung
NCI-H522 lung = test system: NCI-H522 lung
OVCAR-3 ovarian = test system: OVCAR-3 ovarian
OVCAR-4 ovarian = test system: OVCAR-4 ovarian
OVCAR-5 ovarian = test system: OVCAR-5 ovarian
OVCAR-8 ovarian = test system: OVCAR-8 ovarian
PC-3 prostate = test system: PC-3 prostate
RPMI-8226 leukemia = test system: RPMI-8226 leukemia
RXF 393 renal = test system: RXF 393 renal
SF-268 CNS = test system: SF-268 CNS
SF-295 CNS = test system: SF-295 CNS
SF-539 CNS = test system: SF-539 CNS
SK-MEL-2 melanoma = test system: SK-MEL-2 melanoma
SK-MEL-28 melanoma = test system: SK-MEL-28 melanoma
SK-MEL-5 melanoma = test system: SK-MEL-5 melanoma
SK-OV-3 ovarian = test system: SK-OV-3 ovarian
SN12C renal = test system: SN12C renal
SNB-19 CNS = test system: SNB-19 CNS
SNB-75 CNS = test system: SNB-75 CNS
SR leukemia = test system: SR leukemia
SW-620 colon = test system: SW-620 colon
T-47D breast = test system: T-47D breast
TK-10 renal = test system: TK-10 renal
U251 CNS = test system: U251 CNS
UACC-257 melanoma = test system: UACC-257 melanoma
UACC-62 melanoma = test system: UACC-62 melanoma
UO-31 renal = test system: UO-31 renal

`COc1cc2c(cc1OC)CN(CCCCOc1cc(O)c3c(=O)cc(-c4ccccc4)oc3c1)CC2` was tested, and the GI50 (786-0 renal) was 3.53 µM, the TGI (786-0 renal) was 14.4 µM and the GI50 (A498 renal) was 25.8 µM. The TGI (A498 renal) was 63.6 µM, the GI50 (A549 NSCLC) was 16.1 µM and the TGI (A549 NSCLC) was > 100 µM. The GI50 (ACHN renal) was 8.74 µM, the TGI (ACHN renal) was > 100 µM and the GI50 (BT-549 breast) was 8.53 µM. For the same molecule, the TGI (BT-549 breast) was 22.9 µM, the GI50 (CAKI-1 renal) was 13.1 µM and the TGI (CAKI-1 renal) was 97.5 µM. The GI50 (CCRF-CEM leukemia) was 5.17 µM, the TGI (CCRF-CEM leukemia) was > 100 µM and the GI50 (COLO 205 colon) was 3.27 µM. The TGI (COLO 205 colon) was 12.6 µM, the GI50 (DU-145 prostate) was 32.1 µM and the TGI (DU-145 prostate) was > 100 µM. For the same molecule, the GI50 (EKVX NSCLC) was 71 µM, the TGI (EKVX NSCLC) was > 100 µM and the GI50 (HCC-2998 colon) was 7.91 µM. It also gave a TGI (HCC-2998 colon) of 22.1 µM, a GI50 (HCT-116 colon) of 3.42 µM and a TGI (HCT-116 colon) of 13.4 µM. The GI50 (HCT-15 colon) was 6.7 µM, the TGI (HCT-15 colon) was 31.8 µM and the GI50 (HL-60(TB) leukemia) was 2.32 µM. For the same molecule, the TGI (HL-60(TB) leukemia) was 13.8 µM, the GI50 (HOP-62 NSCLC) was 22.2 µM and the TGI (HOP-62 NSCLC) was > 100 µM. For the same molecule, the GI50 (HOP-92 NSCLC) was 8.92 µM, the TGI (HOP-92 NSCLC) was > 100 µM and the GI50 (HS 578T breast) was 11.6 µM. For the same molecule, the TGI (HS 578T breast) was 52 µM, the GI50 (HT29 colon) was 3.34 µM and the TGI (HT29 colon) was 12.4 µM. The GI50 (IGROV1 ovarian) was 26.4 µM, the TGI (IGROV1 ovarian) was > 100 µM and the GI50 (K-562 leukemia) was 2.48 µM. The TGI (K-562 leukemia) was 10.8 µM, the GI50 (KM12 colon) was 10.3 µM and the TGI (KM12 colon) was 36.9 µM. For the same molecule, the GI50 (LOX IMVI melanoma) was 4.51 µM, the TGI (LOX IMVI melanoma) was 15.3 µM and the GI50 (M14 melanoma) was 2.96 µM. It also gave a TGI (M14 melanoma) of 11.3 µM, a GI50 (MALME-3M melanoma) of 2.95 µM and a TGI (MALME-3M melanoma) of 8.16 µM. For the same molecule, the GI50 (MCF7 breast) was 6.06 µM, the TGI (MCF7 breast) was 35.4 µM and the GI50 (MDA-MB-231 breast) was 10.6 µM. For the same molecule, the TGI (MDA-MB-231 breast) was 44.8 µM, the GI50 (MDA-MB-435) was 13.2 µM and the TGI (MDA-MB-435) was 41.9 µM. It also gave a GI50 (MDA-MB-468 breast) of 2.07 µM, a TGI (MDA-MB-468 breast) of 14 µM and a GI50 (MOLT-4 leukemia) of 3.09 µM. For the same molecule, the TGI (MOLT-4 leukemia) was 19.6 µM, the GI50 (NCI-H226 lung) was 10.2 µM and the TGI (NCI-H226 lung) was > 100 µM. For the same molecule, the GI50 (NCI-H23 lung) was 24.5 µM, the TGI (NCI-H23 lung) was > 100 µM and the GI50 (NCI-H460 lung) was 7.07 µM. For the same molecule, the TGI (NCI-H460 lung) was 41.5 µM, the GI50 (NCI-H522 lung) was 12.5 µM and the TGI (NCI-H522 lung) was 29.4 µM. For the same molecule, the GI50 (OVCAR-3 ovarian) was 13.1 µM, the TGI (OVCAR-3 ovarian) was 50.3 µM and the GI50 (OVCAR-4 ovarian) was 4.01 µM. The TGI (OVCAR-4 ovarian) was 91.5 µM, the GI50 (OVCAR-5 ovarian) was 40.7 µM and the TGI (OVCAR-5 ovarian) was > 100 µM. The GI50 (OVCAR-8 ovarian) was 18.9 µM, the TGI (OVCAR-8 ovarian) was > 100 µM and the GI50 (PC-3 prostate) was 6.44 µM. The TGI (PC-3 prostate) was > 100 µM, the GI50 (RPMI-8226 leukemia) was 4.29 µM and the TGI (RPMI-8226 leukemia) was 24.3 µM. The GI50 (RXF 393 renal) was 1.69 µM, the TGI (RXF 393 renal) was 10.9 µM and the GI50 (SF-268 CNS) was 10.6 µM. The TGI (SF-268 CNS) was > 100 µM, the GI50 (SF-295 CNS) was 10.7 µM and the TGI (SF-295 CNS) was 25 µM. For the same molecule, the GI50 (SF-539 CNS) was 10.4 µM, the TGI (SF-539 CNS) was 23.8 µM and the GI50 (SK-MEL-2 melanoma) was 14 µM. For the same molecule, the TGI (SK-MEL-2 melanoma) was 40.1 µM, the GI50 (SK-MEL-28 melanoma) was 5.32 µM and the TGI (SK-MEL-28 melanoma) was 19.6 µM. For the same molecule, the GI50 (SK-MEL-5 melanoma) was 11 µM, the TGI (SK-MEL-5 melanoma) was 23.5 µM and the GI50 (SK-OV-3 ovarian) was 15.7 µM. The TGI (SK-OV-3 ovarian) was 50.8 µM, the GI50 (SN12C renal) was 6.25 µM and the TGI (SN12C renal) was > 100 µM. For the same molecule, the GI50 (SNB-19 CNS) was 28.5 µM, the TGI (SNB-19 CNS) was > 100 µM and the GI50 (SNB-75 CNS) was 4 µM. It also gave a TGI (SNB-75 CNS) of 45.4 µM, a GI50 (SR leukemia) of 1.85 µM and a TGI (SR leukemia) of 4.67 µM. It also gave a GI50 (SW-620 colon) of 11.3 µM, a TGI (SW-620 colon) of 35.4 µM and a GI50 (T-47D breast) of 9.01 µM. For the same molecule, the TGI (T-47D breast) was 65.9 µM, the GI50 (TK-10 renal) was 57.4 µM and the TGI (TK-10 renal) was > 100 µM. It also gave a GI50 (U251 CNS) of 11.9 µM, a TGI (U251 CNS) of 56.6 µM and a GI50 (UACC-257 melanoma) of 5.28 µM. For the same molecule, the TGI (UACC-257 melanoma) was 18.6 µM, the GI50 (UACC-62 melanoma) was 2.67 µM and the TGI (UACC-62 melanoma) was 7.92 µM. For the same molecule, the GI50 (UO-31 renal) was 10.3 µM and the TGI (UO-31 renal) was 26.4 µM.

— PubChem BioAssay (NCI)
